# Measured values: patent publication US6737383B1, “Herbicidal oxadiazolidines” (priority 1999, dated 2004)
# What was measured:
# [1] = tested on: wheat; test: Test B pre/postemergence wheat; format: in vivo, Triticum aestivum; settings: for Plant response rating, Wheat: scale of 0 to 10 where 0 is no effect and 10 is complete control
# Method in brief: (§1)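 Herbicidal effect was estimated by eye on a ten-point control scale after plants spent twelve to sixteen days in a greenhouse following soil or foliar treatment. Foliar sprays targeted plants at one to four leaves; all doses were formulated in a non-phytotoxic solvent with surfactant.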
# [2] = tested on: soybean; test: Test B pre/postemergence soybean; format: in vivo, Glycine max; settings: for Plant response rating, Soybean: scale of 0 to 10 where 0 is no effect and 10 is complete control
# Method in brief: as §1
# [3] = tested on: wild oat; test: Test B pre/postemergence wild oat; format: in vivo, Avena fatua; settings: for Plant response rating, Wild oats: scale of 0 to 10 where 0 is no effect and 10 is complete control
# Method in brief: as §1
# [4] = tested on: velvetleaf; test: Test B pre/postemergence velvetleaf; format: in vivo, Abutilon theophrasti; settings: for Plant response rating, Velvetleaf: scale of 0 to 10 where 0 is no effect and 10 is complete control
# Method in brief: as §1
# [5] = tested on: pigweed; test: Test B pre/postemergence pigweed; format: in vivo, Amaranthus retroflexus; settings: for Plant response rating, Redroot pigweed: scale of 0 to 10 where 0 is no effect and 10 is complete control
# Method in brief: as §1
# [6] = tested on: duck salad; test: Test B flood test duck salad; format: in vivo, Heteranthera limosa
# Method in brief: (§2)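 Each value is a visual injury score relative to controls, with 10 meaning complete control and 0 no effect. Evaluation took place twelve to sixteen days after the 2-leaf-stage plants were treated and kept in the greenhouse.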
# [7] = tested on: rice; test: Test B flood test rice; format: in vivo, Oryza sativa
# Method in brief: as §2
# [8] = tested on: surinam grass; test: Test B pre/postemergence surinam grass; format: in vivo, Brachiaria decumbens
# Method in brief: as §1
# [9] = tested on: sugar beet; test: Test B pre/postemergence sugar beet; format: in vivo, Beta vulgaris; settings: for Plant response rating, Sugarbeets: scale of 0 to 10 where 0 is no effect and 10 is complete control
# Method in brief: as §1
# [10] = tested on: rape; test: Test B pre/postemergence rape; format: in vivo, Brassica napus; settings: for Plant response rating, Rape: scale of 0 to 10 where 0 is no effect and 10 is complete control
# Method in brief: as §1
# [11] = tested on: morningglory; test: Test B pre/postemergence morningglory; format: in vivo, Ipomoea hederacea; settings: for Plant response rating, Morningglory: scale of 0 to 10 where 0 is no effect and 10 is complete control
# Method in brief: as §1
# [12] = tested on: blackgrass; test: Test B pre/postemergence blackgrass; format: in vivo, Alopecurus myosuroides
# Method in brief: as §1
# [13] = tested on: giant foxtail; test: Test B pre/postemergence giant foxtail; format: in vivo, Setaria faberii
# Method in brief: as §1
# [14] = tested on: corn; test: Test B pre/postemergence corn; format: in vivo, Zea mays
# Method in brief: as §1
# [15] = tested on: smallflower flatsedge; test: Test B flood test smallflower flatsedge; format: in vivo, Cyperus difformis
# Method in brief: as §2
# [16] = tested on: cocklebur; test: Test B pre/postemergence cocklebur; format: in vivo, Xanthium strumarium
# Method in brief: as §1
# [17] = Postemergence, Rate 250 g/ha, scale 0 to 10
# [18] = Preemergence, Rate 250 g/ha, scale 0 to 10, 0 is no effect, 10 is complete control
# [19] = Preemergence, Rate 500 g/ha, scale 0 to 10, 0 is no effect, 10 is complete control
# [20] = Rate 62 g/ha, Postemergence, scale 0 to 10 (0 no effect, 10 complete control)
# [21] = Rate 125 g/ha, Postemergence, scale 0 to 10, 0 is no effect, 10 is complete control
# [22] = Rate 62 g/ha, flood test species, Pre-emergence, visual evaluation after twelve to sixteen days
# [23] = Rate 125 g/ha, under heading Pre-emergence, flood test species, visual evaluation after twelve to sixteen days
# [24] = Rate 250 g/ha, Pre-emergence (flood test species), scale 0 to 10, 0 is no effect, 10 is complete control
# [25] = Rate 500 g/ha, Pre-emergence, flood test species, scale 0 to 10 (0 no effect, 10 complete control)
# [26] = Postemergence, Rate 500 g/ha, scale of 0 to 10 where 0 is no effect and 10 is complete control
# [27] = Preemergence, Rate 62 g/ha, scale of 0 to 10 where 0 is no effect and 10 is complete control
# [28] = Preemergence, Rate 125 g/ha, scale of 0 to 10 where 0 is no effect and 10 is complete control
smiles,measurement,setting,value
CC(C)N(C(=O)n1oc(=O)n(C(C)C(=O)N(C)C)c1=O)c1ccc(F)cc1 (stereo not drawn) [Compound 478],Wheat plant response rating,[1]; [17],2
same,"Plant response rating, Wheat","[1]; Preemergence, Rate 62 g/ha",0
same,"Plant response rating, Wheat","[1]; Preemergence, Rate 125 g/ha",0
same,Wheat plant response rating,[1]; [18],1
same,Wheat plant response rating,[1]; [19],8
same,Wheat plant response rating,[1]; [20],0
same,Wheat plant response rating,[1]; [21],0
same,Soybean plant response rating,[2]; [17],2
same,"Plant response rating, Soybean","[2]; Preemergence, Rate 62 g/ha",0
same,"Plant response rating, Soybean","[2]; Preemergence, Rate 125 g/ha",0
same,Soybean plant response rating,[2]; [18],0
same,Soybean plant response rating,[2]; [19],0
same,Soybean plant response rating,[2]; [20],2
same,Soybean plant response rating,[2]; [21],2
same,Wild oats plant response rating,[3]; [17],0
same,"Plant response rating, Wild oats","[3]; Preemergence, Rate 62 g/ha",2
same,"Plant response rating, Wild oats","[3]; Preemergence, Rate 125 g/ha",7
same,Wild oats plant response rating,[3]; [18],9
same,Wild oats plant response rating,[3]; [19],10
same,Wild oats plant response rating,[3]; [20],0
same,Wild oats plant response rating,[3]; [21],0
same,Velvetleaf plant response rating,[4]; [17],0
same,"Plant response rating, Velvetleaf","[4]; Preemergence, Rate 62 g/ha",0
same,"Plant response rating, Velvetleaf","[4]; Preemergence, Rate 125 g/ha",1
same,Velvetleaf plant response rating,[4]; [18],3
same,Velvetleaf plant response rating,[4]; [19],7
same,Velvetleaf plant response rating,[4]; [20],0
same,Velvetleaf plant response rating,[4]; [21],0
same,Redroot pigweed plant response rating,[5]; [17],3
same,"Plant response rating, Redroot pigweed","[5]; Preemergence, Rate 62 g/ha",8
same,"Plant response rating, Redroot pigweed","[5]; Preemergence, Rate 125 g/ha",8
same,Redroot pigweed plant response rating,[5]; [18],9
same,Redroot pigweed plant response rating,[5]; [19],10
same,Redroot pigweed plant response rating,[5]; [20],1
same,Redroot pigweed plant response rating,[5]; [21],2
same,"Plant response rating, Ducksalad (0 to 10 scale, 0 is no effect, 10 is complete control)",[6]; [22],0
same,"Ducksalad plant response rating (0 to 10 scale, 0 is no effect, 10 is complete control)",[6]; [23],0
same,Ducksalad plant response rating,[6]; [24],0
same,Ducksalad plant response rating,[6]; [25],0
same,"Plant response rating, Rice (0 to 10 scale, 0 is no effect, 10 is complete control)",[7]; [22],0
same,"Rice plant response rating (0 to 10 scale, 0 is no effect, 10 is complete control)",[7]; [23],0
same,Rice plant response rating,[7]; [24],0
same,Rice plant response rating,[7]; [25],0
same,B. signalgrass plant response rating,"[8]; Postemergence, Rate 250 g/ha, scale 0 to 10, 0 no effect, 10 complete control",5
same,B. signalgrass plant response rating,[8]; [26],8
same,"Plant response rating, B. signalgrass",[8]; [27],4
same,"Plant response rating, B. signalgrass",[8]; [28],6
same,B. signalgrass plant response rating,[8]; [18],9
same,B. signalgrass plant response rating,[8]; [19],10
same,B. signalgrass plant response rating,[8]; [20],0
same,B. signalgrass plant response rating,[8]; [21],0
same,Sugarbeets plant response rating,[9]; [17],0
same,"Plant response rating, Sugarbeets","[9]; Preemergence, Rate 62 g/ha",0
same,"Plant response rating, Sugarbeets","[9]; Preemergence, Rate 125 g/ha",0
same,Sugarbeets plant response rating,[9]; [18],3
same,Sugarbeets plant response rating,[9]; [19],7
same,Sugarbeets plant response rating,[9]; [20],0
same,Sugarbeets plant response rating,[9]; [21],0
same,Rape plant response rating,[10]; [17],0
same,"Plant response rating, Rape","[10]; Preemergence, Rate 62 g/ha",0
same,"Plant response rating, Rape","[10]; Preemergence, Rate 125 g/ha",1
same,Rape plant response rating,[10]; [18],4
same,Rape plant response rating,[10]; [19],6
same,Rape plant response rating,[10]; [20],0
same,Rape plant response rating,[10]; [21],0
same,Morningglory plant response rating,[11]; [17],7
same,"Plant response rating, Morningglory","[11]; Preemergence, Rate 62 g/ha",0
same,"Plant response rating, Morningglory","[11]; Preemergence, Rate 125 g/ha",0
same,Morningglory plant response rating,[11]; [18],1
same,Morningglory plant response rating,[11]; [19],2
same,Morningglory plant response rating,[11]; [20],3
same,Morningglory plant response rating,[11]; [21],3
same,Blackgrass plant response rating,[12]; [17],8
same,Blackgrass plant response rating,[12]; [26],8
same,"Plant response rating, Blackgrass",[12]; [27],4
same,"Plant response rating, Blackgrass",[12]; [28],8
same,Blackgrass plant response rating,[12]; [18],10
same,Blackgrass plant response rating,[12]; [19],10
same,Blackgrass plant response rating,[12]; [20],0
same,Blackgrass plant response rating,[12]; [21],2
same,Giant foxtail plant response rating,[13]; [17],8
same,Giant foxtail plant response rating,[13]; [26],9
same,"Plant response rating, Giant foxtail",[13]; [27],9
same,"Plant response rating, Giant foxtail",[13]; [28],10
same,Giant foxtail plant response rating,[13]; [18],10
same,Giant foxtail plant response rating,[13]; [19],10
same,Giant foxtail plant response rating,[13]; [20],3
same,Giant foxtail plant response rating,[13]; [21],6
same,Corn plant response rating,[14]; [17],0
same,Corn plant response rating,[14]; [26],2
same,"Plant response rating, Corn",[14]; [27],0
same,"Plant response rating, Corn",[14]; [28],0
same,Corn plant response rating,[14]; [18],0
same,Corn plant response rating,[14]; [19],0
same,Corn plant response rating,[14]; [20],0
same,Corn plant response rating,[14]; [21],0
same,"Plant response rating, S. Flatsedge (0 to 10 scale, 0 is no effect, 10 is complete control)",[15]; [22],0
same,"S. Flatsedge plant response rating (0 to 10 scale, 0 is no effect, 10 is complete control)",[15]; [23],0
same,S. Flatsedge plant response rating,[15]; [24],0
same,S. Flatsedge plant response rating,[15]; [25],0
same,Cocklebur plant response rating,[16]; [17],0
same,Cocklebur plant response rating,[16]; [26],0
same,"Plant response rating, Cocklebur",[16]; [27],0
same,"Plant response rating, Cocklebur",[16]; [28],0
same,Cocklebur plant response rating,[16]; [18],0
same,Cocklebur plant response rating,[16]; [19],0
same,Cocklebur plant response rating,[16]; [20],0
same,Cocklebur plant response rating,[16]; [21],0
